Measured values reported in article PMC7031696 (Cell chemical biology, 2019).
Like-named read-outs stand apart in the source and are kept apart here.

How the values were obtained:
[1] = test system: Plasmodium falciparum 3D7-A10 parasites; experiment: Stage specificity assay (8-h exposure of synchronized stages, IC50^8h); format: cell-based; settings: for IC50: Plasmodium falciparum
[2] = test system: asynchronous 3D7-A10 parasite cultures; experiment: Standard 72-h exposure asexual blood stage susceptibility assay (IC50^72h); format: cell-based, Plasmodium falciparum; settings: Plasmodium falciparum, 3D7, 72 h, read-out: Overall (72hr assay) Mean IC50 (IC50^72h)
[3] = test system: 3D7-MR4 trophozoite parasite-infected RBCs; experiment: Metabolomic profiling (hydrophilic metabolite changes, UHPLC-MS); format: cell-based, Plasmodium falciparum

`FC(F)(F)c1ccc(Nc2cc3[nH]c(-c4cccc(C(F)(F)F)c4)nc3cn2)nc1` [MMV675939] was tested, and the “Ratio lowest IC50 8hr/IC50 72hr” value ([1]; 3D7-A10) was 2.0, the IC50 ([1]; 3D7, read-out: Early rings Mean IC50 (IC50^8h), 8-h exposure 0–8 hr, 3D7-A10, survival at 60 h) was 1170 nM and the IC50 ([1]; 3D7, read-out: Early trophozoites Mean IC50 (IC50^8h), 8-h exposure 16–24 hr, 3D7-A10, survival at 60 h) was 62.9 nM. It also gave an IC50 ([1]; 3D7, read-out: Late rings Mean IC50 (IC50^8h), 8-h exposure 8–16 hr, 3D7-A10, survival at 60 h) of 268 nM, an IC50 ([1]; 3D7, read-out: Late trophozoites Mean IC50 (IC50^8h), 8-h exposure 24–32 hr, 3D7-A10, survival at 60 h) of 146 nM and an IC50 ([1]; 3D7, read-out: Schizonts Mean IC50 (IC50^8h), 8-h exposure 32–40 hr, 3D7-A10, survival at 60 h) of 1650 nM. The “IC50^8h relative to IC50^72h value” ([1]; most susceptible stages) was 2 fold, the “Stage of peak activity (Figure 6)” value ([1]; period when the parasite was most susceptible (lowest IC50^8h)) was “early and late trophozoites” and the “Peak Activity (Table S1)” value ([1]; stage(s) with the lowest IC50^8h) was “Trophs”. The IC50 [2] was 30.8 nM, the “changes within the set of metabolites detected (low fold change group)” value ([3]; 10 × IC50^72h, 2.5 hr, trophozoites) was “did not induce major changes” and the “Log2(fold changes) 3-phosphoglycerate” value ([3]; metabolite 3-phosphoglycerate, log2 fold change) was -0.0740. For the same compound, the “Log2(fold changes) 4-Pyridoxic acid” value ([3]; metabolite 4-Pyridoxic acid, log2 fold change) was 0.0934, the “Log2(fold changes) 4-aminobutyrate” value ([3]; metabolite 4-aminobutyrate, log2 fold change) was -0.0838 and the “Log2(fold changes) 4-phosphopantetheine” value ([3]; metabolite 4-phosphopantetheine, log2 fold change) was 0.0000. The “Log2(fold changes) 4-phosphopantothenate” value ([3]; metabolite 4-phosphopantothenate, log2 fold change) was -0.1644, the “Log2(fold changes) 5-aminopentanoic acid” value ([3]; metabolite 5-aminopentanoic acid, log2 fold change) was 0.0000 and the “Log2(fold changes) 5-methyl-THF” value ([3]; metabolite 5-methyl-THF, log2 fold change) was 0.0000. For the same compound, the “Log2(fold changes) 5-phosphoribosyl-1-pyrophosphate” value ([3]; metabolite 5-phosphoribosyl-1-pyrophosphate, log2 fold change) was 0.0000, the “Log2(fold changes) 6-phospho-D-gluconate” value ([3]; metabolite 6-phospho-D-gluconate, log2 fold change) was -0.0601 and the “Log2(fold change) HVDD” value ([3]; metabolite HVDD) was 0.0907. For the same compound, the “Log2(fold change) Hydroxyisocaproic acid” value ([3]; metabolite Hydroxyisocaproic acid) was 0.0000, the “Log2(fold change) IDP” value ([3]; metabolite IDP) was 0.0000 and the “Log2(fold change) IMP” value ([3]; metabolite IMP) was -0.0368. The “Log2(fold change) Inositol” value ([3]; metabolite Inositol) was 0.0000, the “Log2(fold change) Isopentyl-PP” value ([3]; metabolite Isopentyl-PP) was -0.3198 and the “Log2(fold change) L-arginino-succinate” value ([3]; metabolite L-arginino-succinate) was 0.0258. The “Log2(fold change) LD” value ([3]; metabolite LD) was 0.2379, the “Log2(fold change) Myristoyl/tetradecanoyl-CoA” value ([3]; metabolite Myristoyl/tetradecanoyl-CoA) was 0.0000 and the “Log2(fold change) N-Acetyl-L-alanine” value ([3]; metabolite N-Acetyl-L-alanine) was 0.0194. The “Log2(fold change) N-acetyl-L-ornithine” value ([3]; metabolite N-acetyl-L-ornithine) was -0.1313, the “Log2(fold change) N-acetyl-glucosamine-1/6-phosphate” value ([3]; metabolite N-acetyl-glucosamine-1/6-phosphate) was -0.1343 and the “Log2(fold change) N-acetyl-glutamate” value ([3]; metabolite N-acetyl-glutamate) was -0.1472. For the same compound, the “Log2(fold change) N-acetyl-glutamine” value ([3]; metabolite N-acetyl-glutamine) was 0.0192, the “Log2(fold change) N-carbamoyl-L-aspartate” value ([3]; metabolite N-carbamoyl-L-aspartate) was -0.1451 and the “Log2(fold change) NAD+” value ([3]; metabolite NAD+) was -0.0175. The “Log2(fold change) NADH” value ([3]; metabolite NADH) was -0.2763, the “Log2(fold change) NADP+” value ([3]; metabolite NADP+) was 0.0809 and the “Log2(fold change) NADPH” value ([3]; metabolite NADPH) was -0.4301. For the same compound, the “Log2(fold change) O-acetyl-L-serine” value ([3]; metabolite O-acetyl-L-serine) was -0.0735, the “Log2(fold change) Octoluse 8/1P” value ([3]; metabolite Octoluse 8/1P) was -0.1460 and the “Log2(fold change) Octoluse Bisphosphate” value ([3]; metabolite Octoluse Bisphosphate) was -0.0903. The “Log2(fold change) PD” value ([3]; metabolite PD) was -0.0797, the “Log2(fold change) PE” value ([3]; metabolite PE) was -0.0211 and the “Log2(fold change) PEE” value ([3]; metabolite PEE) was 0.0917. For the same compound, the “Log2(fold change) PEEK” value ([3]; metabolite PEEK) was 0.1721, the “Log2(fold change) PVNF” value ([3]; metabolite PVNF) was 0.1648 and the “Log2(fold change) Pyroglutamic acid” value ([3]; metabolite Pyroglutamic acid) was -0.1915. The “Log2(fold change) Pyrophosphate” value ([3]; metabolite Pyrophosphate) was 0.0000, the “Log2(fold change) Ribose-5-phosphate” value ([3]; metabolite Ribose-5-phosphate) was -0.1384 and the “Log2(fold change) S-adenosyl-L-homocysteine” value ([3]; metabolite S-adenosyl-L-homocysteine) was 0.0407. For the same compound, the “Log2(fold change) S-adenosyl-L-methioninamine” value ([3]; metabolite S-adenosyl-L-methioninamine) was -0.3534, the “Log2(fold change) S-adenosyl-L-methionine” value ([3]; metabolite S-adenosyl-L-methionine) was 0.0000 and the “Log2(fold change) S-methyl-5'-thioadenosine” value ([3]; metabolite S-methyl-5'-thioadenosine) was 0.0820. The “Log2(fold change) SD” value ([3]; metabolite SD) was -0.1003, the “Log2(fold change) SDL” value ([3]; metabolite SDL) was 0.0000 and the “Log2(fold change) SID” value ([3]; metabolite SID) was 0.1202. The “Log2(fold change) Sedoheptulose bisphosphate” value ([3]; metabolite Sedoheptulose bisphosphate) was -0.2322, the “Log2(fold change) Thiamine pyrophosphate” value ([3]; metabolite Thiamine pyrophosphate) was 0.0281 and the “Log2(fold changes) UDP-D-glucose” value ([3]; metabolite UDP-D-glucose, log2 fold change) was -0.0394. For the same compound, the “Log2(fold changes) UDP-D-glucuronate” value ([3]; metabolite UDP-D-glucuronate, log2 fold change) was -0.0296, the “Log2(fold changes) UDP-N-acetyl-glucosamine” value ([3]; metabolite UDP-N-acetyl-glucosamine, log2 fold change) was -0.1021 and the “Log2(fold changes) UDP” value ([3]; metabolite UDP, log2 fold change) was -0.2552. For the same compound, the “Log2(fold changes) UMP” value ([3]; metabolite UMP, log2 fold change) was -0.1084, the “Log2(fold changes) UTP” value ([3]; metabolite UTP, log2 fold change) was 0.0000 and the “Log2(fold change) hydroxyphenylpyruvate” value ([3]; metabolite hydroxyphenylpyruvate) was 0.0000. The “Log2(fold change) hydroxyproline/Aminolevulinate” value ([3]; metabolite hydroxyproline/Aminolevulinate) was -0.1121, the “Log2(fold change) hypoxanthine” value ([3]; metabolite hypoxanthine) was -0.1075 and the “Log2(fold change) indole” value ([3]; metabolite indole) was 0.0000. For the same compound, the “Log2(fold change) inosine” value ([3]; metabolite inosine) was 0.0076, the “Log2(fold change) isoleucine” value ([3]; metabolite isoleucine) was 0.0000 and the “Log2(fold change) lactate” value ([3]; metabolite lactate) was -0.1204. For the same compound, the “Log2(fold change) leucine” value ([3]; metabolite leucine) was 0.0000, the “Log2(fold change) lysine” value ([3]; metabolite lysine) was -0.3554 and the “Log2(fold change) malate” value ([3]; metabolite malate) was -0.1053. For the same compound, the “Log2(fold change) maleic acid” value ([3]; metabolite maleic acid) was -0.1158, the “Log2(fold change) methionine” value ([3]; metabolite methionine) was -0.0422 and the “Log2(fold change) myo-inositol” value ([3]; metabolite myo-inositol) was -0.1497. The “Log2(fold change) nicotinamide mononucleotide” value ([3]; metabolite nicotinamide mononucleotide) was 0.0424, the “Log2(fold change) nicotinate” value ([3]; metabolite nicotinate) was -0.2143 and the “Log2(fold change) ornithine” value ([3]; metabolite ornithine) was 0.2780. The “Log2(fold change) orotate” value ([3]; metabolite orotate) was -0.3359, the “Log2(fold change) orotidine-5'-phosphate” value ([3]; metabolite orotidine-5'-phosphate) was -0.1978 and the “Log2(fold change) oxaloacetate” value ([3]; metabolite oxaloacetate) was -0.2404. For the same compound, the “Log2(fold change) p-aminobenzoate” value ([3]; metabolite p-aminobenzoate) was 0.0000, the “Log2(fold change) p-hydroxybenzoate” value ([3]; metabolite p-hydroxybenzoate) was 0.0000 and the “Log2(fold change) pantothenate” value ([3]; metabolite pantothenate) was -0.0579. For the same compound, the “Log2(fold change) phenylalanine” value ([3]; metabolite phenylalanine) was -0.1115, the “Log2(fold change) phenylpyruvate” value ([3]; metabolite phenylpyruvate) was 0.0000 and the “Log2(fold change) phosphoenolpyruvate” value ([3]; metabolite phosphoenolpyruvate) was 0.0011. The “Log2(fold change) prephenate” value ([3]; metabolite prephenate) was -0.0728, the “Log2(fold change) proline” value ([3]; metabolite proline) was -0.1132 and the “Log2(fold change) pyridoxine” value ([3]; metabolite pyridoxine) was 0.1122. The “Log2(fold change) pyruvate” value ([3]; metabolite pyruvate) was -0.1845, the “Log2(fold change) riboflavin” value ([3]; metabolite riboflavin) was 0.2197 and the “Log2(fold change) ribose” value ([3]; metabolite ribose) was -0.0488. The “Log2(fold change) ribose-phosphate” value ([3]; metabolite ribose-phosphate) was -0.3090, the “Log2(fold change) ribulose-5-phosphate” value ([3]; metabolite ribulose-5-phosphate) was -0.1779 and the “Log2(fold change) serine” value ([3]; metabolite serine) was -0.0132. The “Log2(fold change) sn-glycerol-3-phosphate” value ([3]; metabolite sn-glycerol-3-phosphate) was -0.0322, the “Log2(fold change) succinate/Methylmalonic acid” value ([3]; metabolite succinate/Methylmalonic acid) was 0.0214 and the “Log2(fold change) succinyl-CoA/methylmalonyl-CoA” value ([3]; metabolite succinyl-CoA/methylmalonyl-CoA) was 0.0000. The “Log2(fold change) taurine” value ([3]; metabolite taurine) was -0.5626, the “Log2(fold change) thiamine” value ([3]; metabolite thiamine) was -0.2223 and the “Log2(fold change) threonine/homoserine” value ([3]; metabolite threonine/homoserine) was -0.0861. For the same compound, the “Log2(fold change) thymidine” value ([3]; metabolite thymidine) was 0.0000, the “Log2(fold changes) thymine” value ([3]; metabolite thymine, log2 fold change) was 0.0000 and the “Log2(fold changes) trehalose-6-Phosphate” value ([3]; metabolite trehalose-6-Phosphate, log2 fold change) was 0.0000. For the same compound, the “Log2(fold changes) tryptophan” value ([3]; metabolite tryptophan, log2 fold change) was -0.3649, the “Log2(fold changes) tyrosine” value ([3]; metabolite tyrosine, log2 fold change) was -0.0724 and the “Log2(fold changes) uridine” value ([3]; metabolite uridine, log2 fold change) was 0.0000.
